Results: US20230321104A1, “USE OF PYRIDO[1,2-A]PYRIMIDINONE COMPOUND IN TREATING PERIPHERAL T CELL LYMPHOMA” (CHIA TAI TIANQING PHARMACEUTICAL GROUP CO., LTD., priority 2020, published 2023)

System: relapsed/refractory peripheral T-cell lymphoma (PTCL)
Assay: Clinical trials on peripheral T-cell lymphoma
Type: in vivo, human
Conditions: for SPD (sum of products of maximum vertical diameters of multiple lesions): baseline 717 mm
Description: 2.1 Administration Regimen • Method of administration: orally administered once daily, 15 mg or 20 mg each time, with 21 consecutive days of administration as one cycle. • Drug: tablet of the compound of formula I, 5 mg or 20 mg.
2.2 Enrollment Criteria • 1) Histopathologically confirmed relapsed/refractory peripheral T-cell lymphoma (PTCL), including four subtypes: peripheral T-cell lymphoma, not otherwise specified (PTCL-NOS); angioimmunoblastic T-cell lymphoma (AITL); anaplastic large cell lymphoma (ALCL); and extranodal NK/T cell lymphoma (NKTCL), nasal type; • 2) Has previously received at least first-line systemic treatment regimen, had disease progression during or after the most recent treatment, or had no objective response after adequate treatment; • 3) At least one measurable target lesion present (evaluated according to the Lugano evaluation criteria, 2014 edition); • 4) Age ≥18 years; ECOG (PS) score: 0-2; expected survival time ≥3 months; • 5) Main organ functions in the screening phase meet the following criteria:
Criteria for Blood Routine Examination (No Growth Factor Used or No Blood Transfusion Conducted within 14 Days): • Absolute neutrophil count (ANC)≥1.0×10^9/L; • Lymphocyte count (LYM)≥0.5×10^9/L; • CD4+ T lymphocyte count≥0.2×10^9/L; • Platelet (PLT)≥75×10^9/L (for patients with lymphoma bone marrow infiltration, ≥50×10^9/L acceptable); • Hemoglobin (Hb)≥80 g/L;

[1] = patients with peripheral T-cell lymphoma, oral once daily 15 mg or 20 mg

SMILES: COc1ncc(-c2ccc3ncc(OCCN(C)C)c(=O)n3c2)cc1NS(=O)(=O)c1ccc(F)cc1Cl [compound of formula I]
- objective response rate (ORR) (6 enrolled patients with peripheral T-cell lymphoma (3/6), oral once daily 15 mg or 20 mg, 21-day cycle, Lugano 2014 criteria): 50%
- SPD (sum of products of maximum vertical diameters of multiple lesions) (Case 1, ALK negative anaplastic large cell lymphoma, 15 mg each day, after 2 cycles of medication): 495 mm
- overall therapeutic effect (Case 1, ALK negative anaplastic large cell lymphoma, 15 mg each day, after 4 cycles): complete response (CR)
- new lesion (Case 1, 15 mg each day, after 4 cycles): no new lesion was found
- SUVmax of the highest uptake lesion, the left parotid gland area (PET-CT) (Case 1, 15 mg each day, after 4 cycles of medication, baseline 7.0): 1.5
- SPD (sum of products of maximum vertical diameters of multiple lesions) (Case 1, 15 mg each day, after 4 cycles of medication): 409 mm
- therapeutic effect (Case 2, extranodal NK/T cell lymphoma, nasal type, 15 mg each day, after 2 cycles of treatment): partial response (PR)
- SPD of measurable target lesions (enhanced MRI) (Case 2, extranodal NK/T cell lymphoma, nasal type, 15 mg each day, after 2 cycles of treatment, before treatment 280 mm): 117 mm
- new lesion (Case 2, 15 mg each day, after 2 cycles of treatment): no new lesion was found
- decrease of SPD (Case 2, 15 mg each day, after 2 cycles of treatment, versus 280 mm before treatment): 58.2%
- safety in treatment [1]: good safety
- therapeutic effect on peripheral T-cell lymphoma [1]: good therapeutic effect
